Experimental data: patent US20250281457A1, “TREATMENT OR PREVENTION OF DENGUE VIRAL INFECTION” (Janssen Pharmaceuticals, Inc., priority 2022, published 2025)
Where two headings read alike, the source gives them in different places.

Experiment: Effect of food on plasma pharmacokinetics after single oral dose of SF2a/b (Example 2)
Format: in vivo, human
Conditions: both sexes, human, plasma, oral, 800 mg; for Tmax: read-out: tmax, Median
Protocol: The effect of food on the pharmacokinetics (PK) of Compound (a) was assessed in healthy participants after a single oral dose of SF2a/b, described in Example 1, administered at different dose levels in a randomized single dose, 2-period crossover study. The effect of food on the PK of Compound (a) was determined at 3 different dose levels (50 mg, 200 mg, and 800 mg) for a standardized breakfast; at one dose level (800 mg) for a high-fat, high-calorie breakfast; at two dose levels (200 mg and 800 mg) for a low-fat, low-calorie breakfast, as well as for a low-fat, high-calorie breakfast. 124 healthy adult participants (male and female, 18 to 55 years of age) were enrolled in this study. The volunteers were divided in six panels, which were organized as follows: • Panel […]: • Treatment D: A single 800-mg dose (4×200-mg tablets) of Compound (a) SF2b in fasted conditions. • Treatment E: A single 800-mg dose (4×200-mg tablets) of Compound (a) SF2b in fed conditions (standardized breakfast). • Treatments D and E (treatment sequence group 1 [n=8]: DE; treatment sequence group 2 [n=8]: ED). Panel 4, n=14: • Treatment F: A single 200-mg dose (1×200-mg tablet) of Compound (a) SF2b in fasted conditions. • Treatment G: A single 200-mg dose (1×200-mg tablet) of Compound (a) SF2b, in fed conditions (standardized breakfast). • Treatments F and G (treatment sequence group 1 [n=7]: FG; treatment sequence group 2 [n=7]: GF). Panel […]: • Treatment H: A single 50-mg dose (1×50-mg tablet) of Compound (a) SF2a in fasted conditions. • Treatment I: A single 50-mg dose (1×50-mg tablet) of Compound (a) SF2a in fed conditions (standardized breakfast). • Treatments H and I (treatment sequence group 1 [n=7]: HI; treatment sequence group 2 [n=7]: IH). Panel 6 (n=16): • Treatment J: single 800-mg dose (4×200-mg tablets) of Compound (a) administered as SF2b in fasted conditions. • Treatment K: single 800-mg dose (4×200-mg tablets) of Compound (a) administered as SF2b in fed conditions (high-fat, high-calorie breakfast). • Treatments J and K (treatment sequence group 1 [n=8]: JK; treatment sequence group 2 [n=8]: KJ). Panel 7 (n=32): • Treatment L: single 800-mg dose (4×200-mg tablets) of Compound (a) administered as SF2b in fed conditions (low-fat, low-calorie breakfast). • Treatment M: single 800-mg dose (4×200-mg tablets) of Compound (a) administered as SF2b in fed conditions (low-fat, high-calorie breakfast). • Treatment L (n=16) or Treatment M (n=16). Panel 8 (n=32): • Treatment N: single 200-mg dose (1×200-mg tablet) of Compound (a) administered as SF2b in fed conditions (low-fat, low-calorie breakfast). • Treatment O: single 200-mg dose (1×200-mg tablet) of Compound (a) administered as SF2b in fed conditions (low-fat, high-calorie breakfast). • Treatment N (n=16) or Treatment O (n=16). Tablets were administered orally, together with approximately 240 mL of non-carbonated water, in fasted or fed conditions. […] On day 1 of all treatments in each panel, the participants had fasted overnight for at least 10 hours before study drug intake. Intake of water was not allowed from 2 hours before and until 2 hours after study drug intake, except for the water used for study drug intake and breakfast. In case of intake in fed conditions, study drug was administered within 10 minutes after completing a standardized breakfast (Treatments E, G, and I), or a high-fat, high-calorie breakfast (Treatment K), a low-fat, low-calorie breakfast (Treatments L and N), or a low-fat, high-calorie breakfast (Treatments M and O). For treatments E, G, and I a standardized breakfast was served, consisting of (or its equivalent) 4 slices of bread, 2 slices of ham or cheese, butter, jelly, and 1 or 2 cups (up to 355 mL) of decaffeinated coffee or tea with milk and/or sugar, if desired (containing approximately: fat: 21 g, carbohydrates: 67 g, proteins: 19 g; total calories: 533 kcal). For treatment K in a high-fat, high-calorie breakfast was served. […]

Cmax (800 mg SF2b, fed, high-fat, high-calorie breakfast, read-out: Cmax, Geometric LS Means Treatment K): 4050 ng/mL
AUC(0-t) (800 mg SF2b, fed, low-fat, high-calorie breakfast, read-out: AUClast, Geometric LS Means Treatment M): 227 µg·h/mL
AUC(0-inf) (800 mg SF2b, fed, low-fat, high-calorie breakfast, read-out: AUC∞, Geometric LS Means Treatment M): 237 µg·h/mL
Cmax (800 mg SF2b, fed, low-fat, high-calorie breakfast, read-out: Cmax, Geometric LS Means Treatment M): 2060 ng/mL
AUC(0-t) (800 mg SF2b, fed, low-fat, low-calorie breakfast, read-out: AUClast, Geometric LS Means Treatment L): 210 µg·h/mL
AUC(0-inf) (800 mg SF2b, fed, low-fat, low-calorie breakfast, read-out: AUC∞, Geometric LS Means Treatment L): 221 µg·h/mL
Cmax (800 mg SF2b, fed, low-fat, low-calorie breakfast, read-out: Cmax, Geometric LS Means Treatment L): 2060 ng/mL
AUC(0-t) (800 mg SF2b, fed, standardized breakfast (Tables 5F, 5H), read-out: AUClast, Geometric LS Means Treatment E): 347 µg·h/mL
AUC(0-inf) (800 mg SF2b, fed, standardized breakfast (Tables 5F, 5H), read-out: AUC∞, Geometric LS Means Treatment E): 341 µg·h/mL
Cmax (800 mg SF2b, fed, standardized breakfast (Tables 5F, 5H), read-out: Cmax, Geometric LS Means Treatment E): 3400 ng/mL
AUC(0-t) (800 mg SF2b, standardized breakfast, linear mixed effects model (Table 5A), read-out: AUClast, Geometric Mean Treatment E): 337 µg·h/mL
AUC(0-inf) (800 mg SF2b, standardized breakfast, linear mixed effects model (Table 5A), read-out: AUC∞, Geometric Mean Treatment E): 352 µg·h/mL
Cmax (800 mg SF2b, standardized breakfast, linear mixed effects model (Table 5A), read-out: Cmax, Geometric Mean Treatment E): 3380 ng/mL
AUC(0-t) (Treatment D: single 800 mg (SF2b), fasted, read-out: AUClast, Geo. Mean): 133 µg·h/mL
AUC(0-t) (Treatment D: single 800 mg (SF2b), fasted, read-out: AUClast, Mean): 149 µg·h/mL
AUC(0-t) (Treatment D: single 800 mg (SF2b), fasted, read-out: AUClast, Median): 138 µg·h/mL
AUC(0-inf) (Treatment D: single 800 mg (SF2b), fasted, read-out: AUC∞, Geo. Mean): 142 µg·h/mL
AUC(0-inf) (Treatment D: single 800 mg (SF2b), fasted, read-out: AUC∞, Mean): 160 µg·h/mL
AUC(0-inf) (Treatment D: single 800 mg (SF2b), fasted, read-out: AUC∞, Median): 144 µg·h/mL
Cmax (Treatment D: single 800 mg (SF2b), fasted, read-out: Cmax, Geo. Mean): 1150 ng/mL
Cmax (Treatment D: single 800 mg (SF2b), fasted, read-out: Cmax, Mean): 1300 ng/mL
Cmax (Treatment D: single 800 mg (SF2b), fasted, read-out: Cmax, Median): 1450 ng/mL
half-life (Treatment D: single 800 mg (SF2b), fasted, read-out: t1/2, term, Geo. Mean (converted)): 180 h
half-life (Treatment D: single 800 mg (SF2b), fasted, read-out: t1/2, term, Mean (converted)): 194 h
half-life (Treatment D: single 800 mg (SF2b), fasted, read-out: t1/2, term, Median (converted)): 179 h
Tmax (Treatment D: single 800 mg (SF2b), fasted): 8 h
AUC(0-t) (Treatment E: single 800 mg (SF2b), fed, standardized breakfast, read-out: AUClast, Geo. Mean): 340 µg·h/mL
AUC(0-t) (Treatment E: single 800 mg (SF2b), fed, standardized breakfast, read-out: AUClast, Mean): 357 µg·h/mL
AUC(0-t) (Treatment E: single 800 mg (SF2b), fed, standardized breakfast, read-out: AUClast, Median): 337 µg·h/mL
AUC(0-inf) (Treatment E: single 800 mg (SF2b), fed, standardized breakfast, read-out: AUC∞, Geo. Mean): 337 µg·h/mL
AUC(0-inf) (Treatment E: single 800 mg (SF2b), fed, standardized breakfast, read-out: AUC∞, Mean): 348 µg·h/mL
AUC(0-inf) (Treatment E: single 800 mg (SF2b), fed, standardized breakfast, read-out: AUC∞, Median): 345 µg·h/mL
Cmax (Treatment E: single 800 mg (SF2b), fed, standardized breakfast, read-out: Cmax, Geo. Mean): 3400 ng/mL
Cmax (Treatment E: single 800 mg (SF2b), fed, standardized breakfast, read-out: Cmax, Mean): 3500 ng/mL
Cmax (Treatment E: single 800 mg (SF2b), fed, standardized breakfast, read-out: Cmax, Median): 3510 ng/mL
half-life (Treatment E: single 800 mg (SF2b), fed, standardized breakfast, read-out: t1/2, term, Geo. Mean (converted)): 166 h
half-life (Treatment E: single 800 mg (SF2b), fed, standardized breakfast, read-out: t1/2, term, Mean (converted)): 176 h
half-life (Treatment E: single 800 mg (SF2b), fed, standardized breakfast, read-out: t1/2, term, Median (converted)): 150 h
Tmax (Treatment E: single 800 mg (SF2b), fed, standardized breakfast): 6 h
Structure (SMILES): COc1cc(NC(C(=O)c2c[nH]c3ccc(OC(F)(F)F)cc23)c2ccc(Cl)cc2OC)cc(S(C)(=O)=O)c1 (stereo not drawn) [Compound (a)]
